PubChem BioAssay AID330 (DTP/NCI, 2004)
Values joined by “and” are separate entries in the source; they are usually repeats but may differ in a detail not shown here. Equal entries are not always repeated. Inconclusive results and toxic doses are left out.

System: P388 leukemia ip, CD2F1 mice, survival T/C
Experiment: NCI In Vivo Anticancer Drug Screen. Data for tumor model P388 Leukemia (intraperitoneal) in CD2F1 (CDF1) mice
Details: endpoint: median survival time, higher = longer survival
Method in brief: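 Mice carrying the transplanted tumor received test compound or vehicle. Survival was recorded in each group, and the value is the treated-group measurement divided by that of the vehicle-treated control group.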

[1] = dose: 12.5 mg/kg/injection, schedule: Q01DX009 (ip), vehicle: saline with Tween-80
[2] = dose: 100.0 mg/kg/injection, schedule: Q04DX003 (ip), vehicle: saline with Tween-80
[3] = dose: 60.0 mg/kg/injection, schedule: Q01DX005 (ip), vehicle: saline with Tween-80
[4] = dose: 120.0 mg/kg/injection, schedule: Q01DX005 (ip), vehicle: saline with Tween-80
[5] = dose: 50.0 mg/kg/injection, schedule: Q01DX005 (ip), vehicle: Klucel (hydroxypropylcellulose) (HPC)
[6] = dose: 100.0 mg/kg/injection, schedule: Q01DX005 (ip), vehicle: Klucel (hydroxypropylcellulose) (HPC)
[7] = dose: 200.0 mg/kg/injection, schedule: Q01DX005 (ip), vehicle: Klucel (hydroxypropylcellulose) (HPC)
[8] = dose: 50.0 mg/kg/injection, schedule: Q01DX005 (ip), vehicle: saline with Tween-80
[9] = dose: 100.0 mg/kg/injection, schedule: Q01DX005 (ip), vehicle: saline with Tween-80
[10] = dose: 200.0 mg/kg/injection, schedule: Q01DX005 (ip), vehicle: saline with Tween-80
[11] = dose: 240.0 mg/kg/injection, schedule: Q01DX005 (ip), vehicle: saline with Tween-80

Q: How did the T/C (dose: 6.25 mg/kg/injection, schedule: Q01DX009 (ip), vehicle: Klucel (hydroxypropylcellulose) (HPC)) turn out when `Cn1c(=O)c2c(nc(NCC[N+](C)(C)Cc3ccc(Cl)cc3)n2C)n(C)c1=O` was run?
A: 93 % of control

Q: And the T/C (dose: 12.5 mg/kg/injection, schedule: Q01DX009 (ip), vehicle: Klucel (hydroxypropylcellulose) (HPC))?
A: 101 % of control

Q: What about the T/C (dose: 25.0 mg/kg/injection, schedule: Q01DX009 (ip), vehicle: Klucel (hydroxypropylcellulose) (HPC)) of the same molecule?
A: 113 % of control and 94 % of control

Q: Which T/C (dose: 3.13 mg/kg/injection, schedule: Q01DX005 (ip), vehicle: saline with Tween-80) does the source give for `C/C(=N\NC(=S)NCc1ccccc1)c1nccnc1C` here?
A: 104 % of control

Q: What about the T/C (dose: 6.25 mg/kg/injection, schedule: Q01DX005 (ip), vehicle: saline with Tween-80) of the same molecule?
A: 109 % of control and 112 % of control

Q: What does the source list for `Cc1ccc(COc2ccc(Cl)cc2Cn2ccnc2)cc1`?
A: T/C (dose: 25.0 mg/kg/injection, schedule: Q04DX002 (ip), vehicle: saline): 104 % of control; T/C (dose: 50.0 mg/kg/injection, schedule: Q04DX002 (ip), vehicle: saline): 106 % of control; T/C (dose: 100.0 mg/kg/injection, schedule: Q04DX002 (ip), vehicle: saline): 106 % of control and 116 % of control

Q: What does the source list for `O=[N+]([O-])c1ccc(C=C2C(Cl)=C(Cl)C(Cl)=C2Cl)cc1`?
A: T/C (dose: 6.25 mg/kg/injection, schedule: Q01DX009 (ip), vehicle: saline with Tween-80): 91 % of control; T/C [1]: 100 % of control

Q: `Cc1nc2c([N+](=O)[O-])c(NCCCc3ccccc3)c([N+](=O)[O-])cc2[nH]1` was tested. Which T/C (dose: 50.0 mg/kg/injection, schedule: Q04DX003 (ip), vehicle: saline with Tween-80) did it give?
A: 94 % of control

Q: And the T/C [2]?
A: 100 % of control and 96 % of control

Q: What does the source list for `CN(C)C1CS(=O)(=O)OC2=C1COCC2` (stereo not drawn)?
A: T/C [3]: 101 % of control; T/C [4]: 105 % of control

Q: With `C[C@]12CCCC[C@@H]1CC[C@@H]1[C@@H]2[C@@H](O)C[C@@]2(C)[C@H]1CC[C@]2(C)O` as the molecule, how does the T/C [2] read?
A: 100 % of control

Q: And the T/C (dose: 200.0 mg/kg/injection, schedule: Q04DX003 (ip), vehicle: saline with Tween-80)?
A: 100 % of control

Q: What does the source list for `CNC(=O)Oc1ccccc1OC(C)C`?
A: T/C (dose: 7.5 mg/kg/injection, schedule: Q01DX005 (ip), vehicle: Klucel (hydroxypropylcellulose) (HPC)): 97 % of control; T/C (dose: 15.0 mg/kg/injection, schedule: Q01DX005 (ip), vehicle: Klucel (hydroxypropylcellulose) (HPC)): 96 % of control

Q: What does the source list for `CCOP(=O)(N1CC1(C)C)N1CC1(C)C` (stereo not drawn)?
A: T/C (dose: 5.0 mg/kg/injection, schedule: Q01DX009 (ip), vehicle: saline): 109 % of control; T/C (dose: 20.0 mg/kg/injection, schedule: Q01DX009 (ip), vehicle: saline): 159 % of control; T/C (dose: 30.0 mg/kg/injection, schedule: Q01DX009 (ip), vehicle: saline): 194 % of control; T/C (dose: 50.0 mg/kg/injection, schedule: Q01DX009 (ip), vehicle: saline): 252 % of control

Q: Which T/C (dose: 4.0 mg/kg/injection, schedule: Q01DX009 (ip), vehicle: other) does the source give for `NC(=O)C(CCO)NC(=O)OCc1ccccc1` (stereo not drawn) here?
A: 101 % of control

Q: And the T/C (dose: 8.0 mg/kg/injection, schedule: Q01DX009 (ip), vehicle: other)?
A: 106 % of control

Q: And the T/C (dose: 16.0 mg/kg/injection, schedule: Q01DX009 (ip), vehicle: other)?
A: 101 % of control

Q: And the T/C (dose: 32.0 mg/kg/injection, schedule: Q01DX009 (ip), vehicle: other)?
A: 101 % of control and 105 % of control

Q: And the T/C (dose: 64.0 mg/kg/injection, schedule: Q01DX009 (ip), vehicle: other)?
A: 97 % of control

Q: What about the T/C (dose: 128.0 mg/kg/injection, schedule: Q01DX009 (ip), vehicle: other) of the same molecule?
A: 88 % of control

Q: And the T/C (dose: 256.0 mg/kg/injection, schedule: Q01DX009 (ip), vehicle: other)?
A: 99 % of control

Q: Which results are given for `CC(=O)OCC12C(OC(C)=O)C(=O)C3C(OC(C)=O)C14OC3(C)COC(=O)c1cccnc1C(C)C(C)C(=O)OC(C(OC(C)=O)C2OC(C)=O)C4(C)O` (stereo not drawn)?
A: T/C (dose: 3.0 mg/kg/injection, schedule: Q01DX009 (ip), vehicle: Klucel (hydroxypropylcellulose) (HPC)): 104 % of control; T/C (dose: 6.0 mg/kg/injection, schedule: Q01DX009 (ip), vehicle: Klucel (hydroxypropylcellulose) (HPC)): 93 % of control; T/C (dose: 12.0 mg/kg/injection, schedule: Q01DX009 (ip), vehicle: Klucel (hydroxypropylcellulose) (HPC)): 96 % of control; T/C (dose: 24.0 mg/kg/injection, schedule: Q01DX009 (ip), vehicle: Klucel (hydroxypropylcellulose) (HPC)): 96 % of control

Q: Which T/C [5] does the source give for `NCCSSc1ccccc1C(=O)O` here?
A: 102 % of control

Q: And the T/C [6]?
A: 105 % of control

Q: What about the T/C [7] of the same molecule?
A: 112 % of control

Q: Which T/C [8] does the source give for `O=C(CC(c1cccnc1)C(C(=O)c1ccc(Cl)cc1)C(CC(=O)c1ccc(Cl)cc1)c1cccnc1)c1ccc(Cl)cc1` (stereo not drawn) here?
A: 90 % of control

Q: What about the T/C [9] of the same molecule?
A: 90 % of control

Q: And the T/C [10]?
A: 92 % of control

Q: With `C=CC(C)(C)c1c(OC)cc(-c2ccccc2)oc1=O` as the molecule, how does the T/C (dose: 8.0 mg/kg/injection, schedule: Q01DX005 (ip), vehicle: Klucel + Tween-80) read?
A: 103 % of control

Q: What about the T/C (dose: 16.0 mg/kg/injection, schedule: Q01DX005 (ip), vehicle: Klucel + Tween-80) of the same molecule?
A: 103 % of control

Q: What about the T/C (dose: 32.0 mg/kg/injection, schedule: Q01DX005 (ip), vehicle: Klucel + Tween-80) of the same molecule?
A: 109 % of control

Q: And the T/C (dose: 64.0 mg/kg/injection, schedule: Q01DX005 (ip), vehicle: Klucel + Tween-80)?
A: 107 % of control

Q: Which results are given for `CC(C)=C1C2C=CC1C1C2C(=O)C2OC2(CO)C1O` (stereo not drawn)?
A: T/C [8]: 100 % of control; T/C [9]: 100 % of control; T/C [10]: 101 % of control

Q: How did the T/C (dose: 50.0 mg/kg/injection, schedule: Q01DX009 (ip), vehicle: Klucel (hydroxypropylcellulose) (HPC)) turn out when `CC1(C)C(c2ccccc2)CC(c2cccc(O)c2)=[N+]1[O-]` (stereo not drawn) was run?
A: 97 % of control

Q: And the T/C (dose: 100.0 mg/kg/injection, schedule: Q01DX009 (ip), vehicle: Klucel (hydroxypropylcellulose) (HPC))?
A: 97 % of control

Q: What about the T/C (dose: 200.0 mg/kg/injection, schedule: Q01DX009 (ip), vehicle: Klucel (hydroxypropylcellulose) (HPC)) of the same molecule?
A: 101 % of control

Q: Which T/C [5] does the source give for `CC1CC(=O)CCC2(C)C(OC(C)(C)C)CCC12` (stereo not drawn) here?
A: 100 % of control

Q: And the T/C [6]?
A: 99 % of control

Q: What about the T/C [7] of the same molecule?
A: 99 % of control

Q: How did the T/C [1] turn out when `CC/C(=C\c1ccccc1)[N+](=O)[O-]` was run?
A: 103 % of control

Q: And the T/C (dose: 25.0 mg/kg/injection, schedule: Q01DX009 (ip), vehicle: saline with Tween-80)?
A: 123 % of control

Q: Which results are given for `CCOC(=O)Cc1cc2cc(OCC)ncc2cc1C`?
A: T/C (dose: 6.25 mg/kg/injection, schedule: Q01DX009 (ip), vehicle: distilled water + Tween-80): 91 % of control; T/C (dose: 12.5 mg/kg/injection, schedule: Q01DX009 (ip), vehicle: distilled water + Tween-80): 89 % of control; T/C (dose: 25.0 mg/kg/injection, schedule: Q01DX009 (ip), vehicle: distilled water + Tween-80): 103 % of control; T/C (dose: 50.0 mg/kg/injection, schedule: Q01DX009 (ip), vehicle: distilled water + Tween-80): 99 % of control; T/C (dose: 100.0 mg/kg/injection, schedule: Q01DX009 (ip), vehicle: distilled water + Tween-80): 94 % of control; T/C (dose: 200.0 mg/kg/injection, schedule: Q01DX009 (ip), vehicle: distilled water + Tween-80): 109 % of control; T/C (dose: 400.0 mg/kg/injection, schedule: Q01DX009 (ip), vehicle: distilled water + Tween-80): 102 % of control

Q: With `COc1cccc2c1C(=O)c1c(O)c3c(c(O)c1C2=O)C[C@@](O)(C(C)=O)C[C@@H]3OC1CC(N)C(OC2CC(O)C(O)C(C)O2)C(C)O1` (stereo partly drawn) as the molecule, how does the T/C (dose: 2.25 mg/kg/injection, schedule: Q04DX003 (ip), vehicle: distilled water + Tween-80) read?
A: 113 % of control

Q: What about the T/C (dose: 4.5 mg/kg/injection, schedule: Q04DX003 (ip), vehicle: distilled water + Tween-80) of the same molecule?
A: 113 % of control

Q: And the T/C (dose: 6.25 mg/kg/injection, schedule: Q04DX003 (ip), vehicle: distilled water + Tween-80)?
A: 112 % of control

Q: And the T/C (dose: 9.0 mg/kg/injection, schedule: Q04DX003 (ip), vehicle: distilled water + Tween-80)?
A: 123 % of control

Q: And the T/C (dose: 12.5 mg/kg/injection, schedule: Q04DX003 (ip), vehicle: distilled water + Tween-80)?
A: 112 % of control

Q: And the T/C (dose: 25.0 mg/kg/injection, schedule: Q04DX003 (ip), vehicle: distilled water + Tween-80)?
A: 119 % of control

Q: And the T/C (dose: 36.0 mg/kg/injection, schedule: Q04DX003 (ip), vehicle: distilled water + Tween-80)?
A: 123 % of control

Q: What about the T/C (dose: 100.0 mg/kg/injection, schedule: Q04DX003 (ip), vehicle: distilled water + Tween-80) of the same molecule?
A: 118 % of control

Q: `CCCCc1c(O)c2c(=O)n(C)c(=O)n3c4ccccc4n(c1=O)c23` was tested. Which T/C [3] did it give?
A: 100 % of control

Q: And the T/C [4]?
A: 89 % of control

Q: What about the T/C [11] of the same molecule?
A: 90 % of control

Q: Which T/C (dose: 25.0 mg/kg/injection, schedule: Q01DX005 (ip), vehicle: Klucel (hydroxypropylcellulose) (HPC)) does the source give for `O=C(CI)Nc1ccc2[nH]c(=O)cc(C(=O)O)c2c1` here?
A: 100 % of control

Q: What about the T/C [5] of the same molecule?
A: 101 % of control

Q: What about the T/C [6] of the same molecule?
A: 108 % of control

Q: Which results are given for `CCn1c(=O)cc2n(C)c3ccccc3n2c1=O`?
A: T/C [3]: 98 % of control; T/C [4]: 94 % of control; T/C [11]: 92 % of control
